For one experiment, the system named is collagen VII. Briefly: Collagen VII immunolabeling (immunofluorescence) of skin sections after 24 weeks of dietary hesperidin. The experiment is classed as in vivo. The conditions noted are these: for Number of sections (out of 12) with labeling of the DEJ and labeling in the papillary dermis / % of sections with labeling of the DEJ and labeling in the papillary dermis: collagen VII; for Number of sections (out of 12) with labeling of the DEJ and labeling in the papillary dermis: control group E: 3; for % of sections with labeling of the DEJ and labeling in the papillary dermis: control group E: 25. The protocol: (§1) The study was carried out on elderly, healthy individuals subjected, for 24 weeks, to a diet optionally comprising hesperidin.
(§2) The first group of individuals (group E) is a control group subjected to a standard diet free of hesperidin.
(§3) The second group of individuals (group F) is a group subjected to a diet comprising 0.1% by weight of hesperidin relative to the standard diet, which corresponds to 50 mg of hesperidin per kg of body weight of the individual and per day.
(§4) The third group of individuals (group G) is a group subjected to a standard diet comprising 0.5% by weight of hesperidin relative to the standard diet, which corresponds to 250 mg of hesperidin per kg of body weight of the individual and per day.
(§5) Skin samples were taken and analyzed in order to study, by immunofluorescence, the expression of the collagen IV and collagen VII skin markers characteristic of the dermoepidermal junction.
The collagen VII immunolabeling is carried out as indicated previously, but using “anticollagen type VII polyclonal” [EUROMEDEX (sold by Chemicon), dilution 1/500] as primary antibody and “anti-mouse Ig FITC” [Dake, dilution 1/100] as secondary antibody.

The test system of a further experiment is collagen IV. Briefly: Collagen IV immunolabeling (immunofluorescence) of skin sections after 24 weeks of dietary hesperidin. The experiment is classed as in vivo. The conditions noted are these: for Number of sections (out of 12) with medium and strong labeling of the DEJ / % of sections with medium and strong labeling of the DEJ: collagen IV; for Number of sections (out of 12) with medium and strong labeling of the DEJ: control group E: 6; for % of sections with medium and strong labeling of the DEJ: control group E: 50. How it is done:
as §1, §2, §3, §4, §5
The immunolabeling of collagen IV is carried out by immunohistochemistry with an “anticollagen type IV polyclonal” primary antibody [Rockland (sold by Tebu-Bio), dilution 1/50] and an “anti-rabbit FITC” secondary antibody [Santa Cruz, dilution 1/100].
The labeling was carried out on frozen sections 5 μm thick derived from skin samples.
The slides were recovered in PBS for five minutes, incubated with the primary antibody for one hour at ambient temperature in the dark, rinsed in PBS twice for five minutes, then incubated with the secondary antibody for one hour at ambient temperature in the dark, and then again rinsed in PBS twice for five minutes.
The slides were then mounted with Vectashield (Vector) containing DAPI ([…]), and then covered with a coverslip.

[1] abbreviates: group F, diet with 0.1% by weight hesperidin (50 mg/kg/day), 24 weeks.
Setting [2] is: group G, diet with 0.5% by weight hesperidin (250 mg/kg/day), 24 weeks.

Consider `COc1ccc([C@@H]2CC(=O)c3c(O)cc(O[C@@H]4O[C@H](CO[C@@H]5O[C@@H](C)[C@H](O)[C@@H](O)[C@H]5O)[C@@H](O)[C@H](O)[C@H]4O)cc3O2)cc1O` [Hesperidin, (S)-7-[[6-O-(6-deoxy-α-L-mannopyranosyl)-β-D-glucopyranosyl]oxy]-2,3-dihydro-5-hydroxy-2-(3-hydroxy-4-methoxyphenyl)-4H-1-benzopyran-4-one], for which the “Number of sections (out of 12) with labeling of the DEJ and labeling in the papillary dermis” value in the experiment with collagen VII (setting [1]) turned out to be 6; in the experiment on collagen VII (setting [2]) it was 11. The “% of sections with labeling of the DEJ and labeling in the papillary dermis” value with collagen VII (setting [1]) was determined as 50%; with collagen VII (setting [2]), 92%. Also, the “Collagen VII fluorescence intensity at the DEJ and in the papillary dermis” value in the experiment on collagen VII (more particularly group G (0.5% hesperidin diet), FIG. 2) is “increase in fluorescence intensity”. The “Effect on collagen network in the dermal tissue and collagen VII expression (conclusion)” value in the experiment with collagen VII (oral, diet, 24 weeks) is given as “increase in the expression of collagen VII”. For the same compound, the figures for the “Number of sections (out of 12) with medium and strong labeling of the DEJ” value with collagen IV (setting [1]) and in the experiment on collagen IV (setting [2]) were 7 and 12, respectively. Further, the results for the “% of sections with medium and strong labeling of the DEJ” value in the experiment with collagen IV (setting [1]) and with collagen IV (setting [2]) were 58% and 100%, respectively. Moreover, the “Effect on collagen network in the dermal tissue and collagen IV expression (conclusion)” value with collagen IV (oral, diet, 24 weeks) is “increase in the expression of the collagen IV”. For the same compound, in the experiment on collagen IV (the two treated groups (F and G), FIG. 1), the “Expression of collagen IV in the basal lamina compared with the control” value is listed as “greater expression of collagen IV”.
